The values below come from PubChem BioAssay (NCI).

Assay in all cases: NCI anticancer screen, dose series, 48 h
Assay [1] has as its system T-47D breast.
For assay [2], the system named is NCI-H460 lung.
Assay [3] concerns MALME-3M melanoma.
Assay [4] relates to HCT-116 colon.
Assay [5] deals with HT29 colon.
Assay [6] concerns RPMI-8226 leukemia.
For assay [7], the system named is OVCAR-8 ovarian.
Assay [8] has as its system RXF 393 renal.
Assay [9] deals with A498 renal.
The test system of assay [10] is HCC-2998 colon.

Values joined by “and” are separate entries in the source; they are usually repeats but may differ in a detail not shown here. Equal values may be shown once.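 Where inhibition never reached the appropriate level, the endpoint shown equals the highest concentration tested. Otherwise, values were interpolated linearly from a five-concentration, 48-hour dose response in 96-well plates. GI50: concentration for 50% inhibition of growth. TGI: concentration producing complete growth inhibition.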

Regarding `O=C(Nc1ccc(Cl)c(Cl)c1)Nc1ccccc1O`, the GI50 in [1] was 4.11 µM; in assay [2], 4.03 µM; in [3], 4.82 µM; in [4], 7.22 µM; in assay [5] it was 18.5 µM; in assay [6], 3.37 µM. In addition, the GI50 in assay [7] is 5.1 µM; in assay [8] it was 15 µM; in assay [9], 12.2 µM; in assay [10] it was 5.56 µM. The TGI is 43.6 µM in assay [1]; 16.1 µM in assay [2]; 20.3 µM in assay [3]; 33.5 µM in assay [4]; 36.1 µM in assay [5]; 32.3 µM in assay [6]. Besides, the TGI is 32.4 µM in [7], 35.6 µM in [8], 27.2 µM in [9] and 19.6 µM in assay [10].
`Clc1ccc(N=CNc2ccc(-c3nc4ccccc4o3)cc2)cc1`: the GI50 in assay [1] is 13.1 µM; in assay [2], 17.1 µM; in assay [4], over 100 µM; in assay [6], 23.7 µM; in [7], 21.1 µM; in assay [8], 25.8 µM. Moreover, the TGI in assay [1] was 52.1 µM; in assay [2], 40.3 µM; in [4], over 100 µM; in assay [6] it was over 100 µM; in assay [7], 40.9 µM; in [8], 80.6 µM.
For `CCCCCCCCCCN1CCC(N2CCCCC2)CC1`, the GI50 was 1.53 µM in assay [1]; 2.99 µM in [2]; 1.97 µM in assay [3]; 1.27 µM in assay [4]; 0.606 µM in assay [5]; 1.83 µM in [6]. The GI50 is 3.81 µM in assay [7], 2.01 µM in assay [8], 9.27 µM in [9] and 2.21 µM in [10]. Also, the TGI stood at 3.58 µM in assay [1]; 8.03 µM in assay [2]; 3.98 µM in [3]; 4.33 µM in assay [5]; 5.21 µM in assay [6]; 14 µM in assay [7]. Moreover, the TGI in assay [8] is 7.15 µM; in [9], 21.7 µM; in assay [10] it was 5.9 µM.
Turning to `CCCCCCCCCCCCOC1C(C(CC(=O)NCCN2CCCC2)NS(=O)(=O)c2cc(Cl)cc(Cl)c2)OC2OC(C)(C)OC21` (centres undefined), the TGI in assay [1] is 4.46 µM and 2.04 µM; in assay [2] it was 3.68 µM and 3.73 µM; in assay [3] it was 3.62 µM; in assay [4], 4.78 µM; in assay [5] it was 3.45 µM and 2.85 µM; in assay [6], 3.21 µM. Further, the TGI came out at 4.88 µM in assay [7], 4.72 µM in assay [8], 4.79 µM in [9] and 4.56 µM in assay [10]. Further, the GI50 in assay [2] is 1.86 µM and 1.89 µM; in assay [3], 1.89 µM; in assay [4] it was 1.85 µM; in assay [5] it was 1.76 µM and 1.31 µM; in assay [6], 1.23 µM; in [7], 2.21 µM. Besides, the GI50 was 2.2 µM in assay [8], 2.4 µM in [9] and 2.14 µM in assay [10].
With `CO/N=C(/C)c1cccc(Nc2cc(-c3ccccc3)nc3ccc(OC)cc23)c1`, the GI50 was 71 µM in [1]; 7.07 µM in [2]; 2.45 µM in assay [3]; 4.25 µM in assay [4]; 34.1 µM in assay [5]; 3.12 µM in assay [6]. Further, the GI50 in [10] was 4.97 µM. In addition, the TGI in [1] was over 100 µM; in assay [2] it was over 100 µM; in assay [3], 7.78 µM; in assay [4], 18.4 µM; in assay [5], over 100 µM; in assay [6] it was 8.28 µM. In assay [10], this molecule displayed a TGI of 20.8 µM.
As for `C=CCN1CC2CON(C(=O)C(OC)(c3ccccc3)C(F)(F)F)C2C1C(C)C` (centres undefined), the GI50 in [1] is 34.5 µg/mL; in [2], 28.9 µg/mL; in assay [3] it was 20 µg/mL; in [4] it was 24.2 µg/mL; in assay [6] it was 9.82 µg/mL; in [7], 57.7 µg/mL. Besides, the GI50 in assay [9] was 23.5 µg/mL; in [10], 18.1 µg/mL. Moreover, the TGI was determined as 54.5 µg/mL in assay [3], 41.7 µg/mL in assay [6], 92 µg/mL in [9] and 38.8 µg/mL in assay [10].
Take `Cc1ncc([N+](=O)[O-])n1CCNS(=O)(=O)CCCn1ncnc1[N+](=O)[O-]`: the TGI in assay [1], in assay [2], in [3], in [4], in assay [5] and in [6] was over 100 µM in each case. Further, the TGI in assay [7], in assay [8] and in [9] was over 100 µM in each case.
For `Nc1nc(N)nc(CCCc2nc(N)nc(N)n2)n1`, the TGI in [1], in assay [2], in assay [3], in assay [4], in [5] and in assay [6] was over 100 µM throughout. In addition, the TGI in [7], in assay [8] and in assay [9] was over 100 µM throughout.
Turning to `Cc1nn(C(=O)c2ccc(Cl)cc2)c2c1C(c1ccc(O)cc1)SC(N)=N2` (centres undefined), the TGI in [1], in [2], in assay [3], in assay [4], in [5] and in assay [6] was over 10 µM each time. For the same molecule, the TGI in assay [7], in assay [8] and in assay [10] was over 10 µM in each case.
For `C[C@H]1CCC/C=C/[C@@H]2C[C@H](O)C[C@H]2[C@H](O)[C@@H](SCC(O)CO)CC(=O)O1` (some centres undefined), the GI50 in assay [1] is 45.2 µM; in assay [2], 26.3 µM; in [3], over 100 µM; in assay [4], 35.5 µM; in [5], 10.2 µM; in [7], over 100 µM. In addition, the GI50 in assay [8] was 4.42 µM; in assay [9] it was 24.4 µM; in assay [10], 14.3 µM. Further, the TGI in assay [1] was over 100 µM; in assay [2], over 100 µM; in assay [3], over 100 µM; in assay [4] it was over 100 µM; in assay [5], 40.8 µM; in [7], over 100 µM. The TGI in assay [8] is 20.1 µM; in [9], 50.2 µM; in assay [10], 42.2 µM.
For `O=C1C(Cl)=C(Nc2ccccc2O)C(=O)N1Cc1ccccc1`, the GI50 in assay [1] was 23.3 µM; in assay [2] it was 21 µM; in assay [3] it was 22.8 µM; in assay [4], 19.6 µM; in assay [6], 12.5 µM; in assay [7], 18.3 µM. Besides, the GI50 in [8] was 12.5 µM; in [9] it was 18.4 µM; in assay [10] it was 20.9 µM. For the same molecule, the TGI in assay [1] was 52.7 µM; in [2] it was 42.5 µM; in assay [3], 40.4 µM; in [4], 33.7 µM; in assay [6], 27.2 µM; in assay [7] it was 34 µM. For the same molecule, the TGI was 30.7 µM in assay [8], 40.6 µM in assay [9] and 35.3 µM in assay [10].
On to `COc1ccc(Cc2cnc(NC(=O)c3ccc4c(c3)OCCO4)s2)cc1`, for which the GI50 in assay [1] is 2.95 µM; in assay [2] it was 0.0344 µM; in assay [3], 1.52 µM; in [4] it was 0.032 µM; in assay [5] it was 0.0418 µM; in [6], 0.0499 µM. The GI50 in [7] is 0.0426 µM; in [9] it was 0.0159 µM; in assay [10] it was 0.038 µM. The TGI was over 100 µM in assay [1]; 26 µM in assay [2]; over 61.6 µM in assay [3]; over 38.8 µM in [4]; over 55.4 µM in [5]; over 100 µM in assay [6]. Also, the TGI was over 100 µM in assay [7], 0.0592 µM in [9] and over 69.6 µM in [10].
Consider `CCC(=O)Nc1ccc(N=NN(C)C)cc1`, for which the TGI in assay [1] was 30.4 µM; in [2], over 100 µM; in assay [3] it was over 100 µM; in [4], over 100 µM; in assay [5] it was over 100 µM; in [7], over 100 µM. Moreover, the TGI in [8] is over 100 µM; in assay [9], over 100 µM; in [10], 6.64 µM.
Take `O=C1CSC(c2ccc(-c3nc4ccccc4s3)cc2)=N1`: the GI50 was 90.9 µM in assay [1]; 30.2 µM in assay [2]; 24.7 µM in [4]; 23.2 µM in [6]; 11.1 µM in [7]; 28.9 µM in assay [8]. The GI50 in assay [10] is 25.9 µM. The TGI in assay [1] is over 100 µM; in [2], 74.5 µM; in assay [4], over 100 µM; in [6], 52.6 µM; in assay [7], over 100 µM; in assay [8] it was over 100 µM. The same molecule had a TGI in assay [10] of 78.5 µM.
Regarding `O=C(N/N=C/c1c(Cl)cccc1Cl)c1ccc(C(F)(F)F)nc1Nc1cccc(C(F)(F)F)c1`, the GI50 in assay [1] was 0.971 µM; in assay [2], 0.419 µM; in [3], 2.17 µM; in [4], 0.461 µM; in [5], 1.24 µM; in [6], 0.375 µM. In addition, the GI50 in [7] was 1.07 µM; in assay [9], 0.603 µM; in [10] it was 3.97 µM. In addition, the TGI in assay [1] was 11.8 µM; in [2], 6.13 µM; in [3], 9.23 µM; in assay [4], 38.8 µM; in assay [5] it was over 100 µM; in assay [6], 10.5 µM. The TGI was over 45.6 µM in assay [7], 2.39 µM in assay [9] and over 100 µM in [10].
In the case of `Cc1ccc(S(=O)(=O)NC(=O)NC2=NC(C)(C)N(c3ccc(Cl)c(Cl)c3)C(N)=N2)cc1`, the TGI in assay [1], in assay [2], in [3], in assay [4], in assay [5] and in [7] was over 100 µM throughout. For the same molecule, the TGI in assay [8], in [9] and in assay [10] was over 100 µM throughout.
Turning to `O=C(O)C12CC3(C(=O)O)CC(C(=O)O)(CC(C(=O)O)(C1)C3=O)C2=O`, the TGI in assay [1], in [2], in assay [3], in [4], in [5] and in [6] was over 100 µM in each case. The TGI in [7], in [8] and in assay [9] was over 100 µM each time.
As to `O=C1C(=O)N(c2cc(Cl)ccc2Cl)C(=O)C(=O)C1c1nc2ccccc2o1`, the TGI in [2], in assay [3], in assay [4], in assay [5], in [6] and in assay [7] was over 100 µM throughout. In addition, the TGI in assay [8], in [9] and in assay [10] was over 100 µM each time.
In the case of `COC1=C(Br)C(=O)c2nc(C)ccc2C1=O`, the TGI in assay [2] is 31.7 µM; in [3], 30.5 µM; in assay [4] it was 21.1 µM; in [5] it was 34.9 µM; in assay [6] it was over 22.6 µM; in [7], 16.6 µM. Further, the TGI in assay [8] was 24.5 µM; in assay [9], 36.4 µM; in [10], 32.2 µM.
In the case of `Nc1ccc2[nH]cc(CCC(=O)O)c2c1`, the TGI in [1], in assay [3], in assay [4], in [5], in [6] and in [7] was over 100 µM in each case. For the same molecule, the TGI in [8] and in assay [9] was over 100 µM in each case.
On to `CCOc1ccccc1NC(=O)C(C#N)C1=C(Cl)C(=O)c2ccccc2C1=O` (centres undefined), for which the GI50 in assay [2] was 3.45 µM; in assay [5], 14 µM; in assay [6] it was 3.34 µM; in assay [7], 1.92 µM; in assay [10], 12.3 µM. The TGI in assay [2] was 3.27 µM and 15.1 µM; in assay [3] it was 2.91 µM and 3.08 µM; in assay [4] it was 3.38 µM and 3.93 µM; in assay [7] it was 2.06 µM and 4.59 µM; in [8] it was 3.43 µM and 3.25 µM; in assay [9] it was 36.5 µM. In [10], the TGI was 3.15 µM and 25.6 µM.
